Test results as given in patent US5374625A, “Adenine and guanine derivatives for the treatment of hepatitis virus infections” (priority 1990, dated 1994).
Values after ≈ are worked out from the molar mass of the structure shown.

Assays:
[1] = tested on: Herpes simplex virus (HSV-1); assay: Antiviral activity against Herpes simplex virus (HSV-1), CPE inhibition in Vero cells (Neutral Red); assay type: cell-based; conditions: Human alphaherpesvirus 1, 50% inhibition of CPE, about 72 hours
Experimental: Antiviral activity against Herpes simplex virus (HSV-1) which is a DNA virus was tested by the following method.
Vero cells (originated from kidney cells of African Green Monkey) were cultured in MEM medium supplemented with 10% fetal bovine serum. One hundred μl of cell suspension (200,000 cells/ml) was plated into 96 wells plates (COSTAR) and cultured for 24 hours so that the culture became confluent. The medium was drawn, and cells were infected with HSV-1 virus for one hour. After drawing the virus fluid, cells were cultured for about 72 hours in a fresh medium containing test samples. The survived cells were stained with Neutral Red solution and absorbance at a wavelength of 546 nm (A546) was measured to evaluate the cytopathic effect (CPE).
CPE inhibition (%) was calculated as follows: [formula] Sample concentration required for 50% inhibition of the CPE was calculated as IC50 (μg/ml).

[2] = tested on: Human Immonodeficiency Virus (HIV); assay: Antiviral activity against HIV (HTLV-IIIB strain) in MT-4 cells, HIV antigen-positive cells by indirect immunofluorescence; assay type: cell-based, HTLV-IIIB strain of HIV; conditions: Human immunodeficiency virus 1, MT4, 96 h, 4 days
Experimental: Antiviral activity against Human Immonodeficiency Virus (HIV) belonging to RNA virus was examined by the following method: MT-4 cells […] in 0.5 ml of RPMI 1640 culture medium were seeded into 48-well plates, and 50 μl of test compounds were added to various concentrations. The cells were incubated at 37° C. for 2 hours in 5% (v/v) carbondioxide incubator. Then, 50 μl of the HTLV-IIIB strain of HIV (2.5×10^5 to 5×10^5 PFU/ml) was inoculated onto the cells. After 4 days, a part of the cells were applied onto a slide glass and immobilized with acetone. The percentages of HIV antigen-positive MT-4 cells were determined by indirect immunofluorescence assay. As the primary antibody, serum of AIDS patients was used. As the secondary antibody, FITC-labelled anti-human IgG was used.

hepatitis B virus (HBV) = assay: Antiviral activity against hepatitis B virus (HBV), viral DNA synthesis inhibition in HB611 cells; assay type: cell-based; conditions: 360 h, drug concentration required for 50% inhibition of viral DNA synthesis, densitometry, read-out: Anti-HBV activity ID50
Experimental: Antiviral activity against hepatitis B virus (HBV) which is a DNA virus was tested by the following method.
The test was done by using a cell line, HB611, that was established by transfection and continuously produces HBV-like particles [Proc. Natl. Acad. Sci. USA, 84, 444-449, 1987]. HB611 cells were maintained in Dulbecco's modified Eagle medium (Gibco) supplemented with fetal bovine serum (Gibco), 100 μg/ml of streptomycin, […] of benzyl penicillin (Gibco) and 200 μg/ml of geneticin (Gibco) at 37° C. in 5% CO2 -95% air.
The cells were seeded in 24-well plate (Corning) at a density of 3×10^4 cells/well, using 1.0 ml of the medium. After 2 days of incubation, the medium was replaced with the same medium containing the test compound. The cells were incubated for a further 15 days, during which time the medium containing the drug was exchanged every three days. […]
The results which was autoradiographed were analyzed using a densitometric analyzer (Shimadzu, Chromatoscana S930).
To quantitatively evaluate the inhibitory activity of the compounds, there were measured the band areas S, D, D2 (S, D1 and D2 represent intracellular free HBV DNA derived from replicative intermediates) and I (represents chromosomally integrated HBV DNA) by densitometric analyzer, and calculated the inhibition percentage as follows: [formula] […]

Compound	IC50 [1] [µg/mL]	IC50 [2] [µg/mL]	other results
Nc1nc2c(ncn2[C@@H]2C[C@H](CO)[C@@H](CO)C[C@H]2O)c(=O)[nH]1 [Example 18, 9-[(1R,2R,4S,5S)-4,5-Bis(hydroxymethyl)-2-hydroxycyclohexyl]-guanine]	45.9 (≈ 148 µM)		
Nc1ncnc2c1ncn2[C@@H]1C[C@H](CO)[C@@H](CO)C[C@H]1O [Example 13, 9-[(1R,2R,4S,5S)-4,5-Bis(hydroxymethyl)-2-hydroxycyclohexyl]-adenine]		55 (≈ 188 µM)	
Nc1ncnc2c1ncn2[C@H]1CC[C@H](CO)[C@@H](CO)C1 [Example 16, 9-[(1S,3S,4S)-3,4-Bis(hydroxymethyl)-cyclohexyl]-adenine]		4.5 (≈ 16.2 µM)	
Nc1nc2c(ncn2[C@H]2CC[C@H](CO)[C@@H](CO)C2)c(=O)[nH]1 [Example 21, 9-[(1S,3S,4S)-3,4-Bis(hydroxymethyl)-cyclohexyl]-guanine]	2.77 (≈ 9.44 µM)		
Nc1ncnc2c1ncn2[C@@H]1CC[C@H](CO)[C@H]1CO [Example 5, 9-[(1R,2R,3S)-2,3-Bis(hydroxymethyl)-1-cyclopentyl]-adenine]			IC50 (hepatitis B virus (HBV)): 0.24 µg/mL (≈ 0.912 µM)
